Reference: US8173693B2, “Benzenesulfonamide derivatives and pharmaceutical composition thereof” (Purzer Pharmaceutical Co., Ltd., priority 2010, dated 2012)

How the values were obtained:
[1] = system: Human hepatoblastoma HepG2 cells; assay: MTT assay; format: cell-based; conditions: 72 hr, read-out: IC50 HepaG2
Description: (§1) Human Bladder Cancer TSGH cells, Human hepatoblastoma HepG2 cells, Human colorectal adenocarcinoma HT-29 cells, human nasopharyngeal carcinoma KB cells, Human gastric adenocarcinoma AGS cells, Human breast carcinoma MCF-7 cells, lung carcinoma A549 cells, and Human prostate carcinoma PC-3 cells were used in the preliminary cytotoxicity assays of the benzenesulfonamide derivatives of the present invention, and the inhibition activity against the tumor cells was evaluated.
(§2) All cell lines were maintained in RPMI 1640 supplied with 10% fetal bovine serum and maintained in a humidified chamber at 37° C. containing 5% CO2. Then, all cell lines were treated with compounds for 72 hr and subsequently incubated with 0.4 mg/mL of MTT at 37° C. for 2 hr. The medium was removed, and DMSO was added to dissolve MTT precipitate. Cell proliferation was determined by measuring the optical density at 540 nm using a Thermomax microplate reader (Molecular Devices, Sunnyvale, Calif.), and the IC50 values of the benzenesulfonamide derivatives of the present invention were calculated.

[2] = system: human nasopharyngeal carcinoma KB cells; assay: MTT assay; format: cell-based; conditions: Homo sapiens, MTT assay; for IC50: KB, 72 hr; for inhibition at 20 µM: KB cells, read-out: Percentage of tumor cells inhibited by 20 μM
Description: as §1, §2

[3] = system: Human colorectal adenocarcinoma HT-29 cells; assay: MTT assay; format: cell-based; conditions: 72 hr
Description: as §1, §2

[4] = system: Human Bladder Cancer TSGH cells; assay: MTT assay; format: cell-based; conditions: 72 hr
Description: as §1, §2

[5] = system: lung carcinoma A549 cells; assay: SRB assay; format: cell-based; conditions: Homo sapiens, 48 hr
[6] = system: Human hepatoblastoma HepG2 cells; assay: SRB assay; format: cell-based; conditions: 48 hr
Description: as §1
(§3) All cell lines were maintained in RPMI 1640 supplied with 10% fetal bovine serum into 96-well microtiter plates and maintained in a humidified chamber at 37° C. containing 5% CO2. After 24 hr, cell lines in partial wells were fixed in situ with 10% trichloroacetic acid (TCA) to represent a measurement at the time of drug addition (T0). Then, cell lines in other wells were incubated with the benzenesulfonamide derivatives of the present invention for an additional 48 hr, and fixed in situ with 10% TCA to represent a measurement at the time of stopping reaction (Tx). After rinsing the plates with PBS and air-drying, 0.4% sulforhodamine B solution (weight per volume in 1% acetic acid) was added to each well and the plates were incubated for 10 min at room temperature. Unbound sulforhodamine B was removed with 1% acetic acid and the plates were air-dried. Cells bound with sulforhodamine B was subsequently solubilized with 10 mM Tris base (Trizma; Sigma). Cell proliferation was determined by measuring the optical density at 515 nm using a Thermomax microplate reader (Molecular Devices, Sunnyvale, Calif.). The half-inhibition concention (GI50) of the benzenesulfonamide derivatives of the present invention was obtained from the detected optical density.

[7] = system: Human colorectal adenocarcinoma HT-29 cells; assay: SRB assay; format: cell-based; conditions: 48 hr
Description: as §1, §3

[8] = system: Human prostate carcinoma PC-3 cells; assay: SRB assay; format: cell-based; conditions: Homo sapiens; for GI50: PC-3, 48 h; for IC50: PC-3, 48 hr
Description: as §1, §3

[9] = system: Human breast carcinoma MCF-7 cells; assay: SRB assay; format: cell-based; conditions: MCF7, 48 hr
Description: as §1, §3

[10] = system: lung carcinoma A549 cells; assay: SRB assay; format: cell-based; conditions: Homo sapiens, 48 hr; remark: listed apart in the source
Description: as §1, §3

[11] = system: Human gastric adenocarcinoma AGS cells; assay: SRB assay; format: cell-based; conditions: 48 hr
Description: as §1, §3

[12] = system: Human colorectal adenocarcinoma HT-29 cells; assay: SRB assay; format: cell-based; conditions: 48 hr; remark: listed apart in the source
[13] = system: Human gastric adenocarcinoma AGS cells; assay: SRB assay; format: cell-based; conditions: 48 hr; remark: listed apart in the source
[14] = system: Human hepatoblastoma HepG2 cells; assay: SRB assay; format: cell-based; conditions: 48 hr; remark: listed apart in the source
[15] = system: Human breast carcinoma MCF-7 cells; assay: SRB assay; format: cell-based; conditions: MCF7, 48 hr; remark: listed apart in the source

O=S(=O)(Nc1cccc2cc[nH]c12)c1ccccc1 [Compound 5a, N-(1H-Indol-7-yl)benzenesulfonamide]
melting point: 178 to 179 °C | IC50 [1]: 44.7 µM | IC50 [2]: > 20 µM | inhibition at 20 µM [2]: 30% | IC50 [3]: 51.9 µM | IC50 [4]: 7.5 µM

Cc1ccc(S(=O)(=O)Nc2cccc3cc[nH]c23)cc1 [Compound 5b, N-(1H-Indol-7-yl)-4-methylbenzenesulfonamide]
melting point: 159 to 160 °C | IC50 [1]: 7.9 µM | IC50 [2]: > 20 µM | inhibition at 20 µM [2]: 39% | IC50 [3]: 7.9 µM | IC50 [4]: 9.4 µM

COc1ccc(S(=O)(=O)Nc2cccc3cc[nH]c23)cc1 [Compound 5c, N-(1H-Indol-7-yl)-4-methoxybenzenesulfonamide]
melting point: 161 to 162 °C | IC50 [1]: 1.9 µM | IC50 [2]: 3.4 µM | IC50 [3]: 1.7 µM | IC50 [4]: 2.4 µM

O=S(=O)(Nc1cccc2cc[nH]c12)c1ccc(Cl)cc1 [Compound 5d, 4-Chloro-N-(1H-indol-7-yl)benzenesulfonamide]
melting point: 163 to 164 °C | IC50 [1]: 14 µM | IC50 [2]: 20 µM | IC50 [3]: 19.8 µM | IC50 [4]: 35.6 µM

O=[N+]([O-])c1ccc(S(=O)(=O)Nc2cccc3cc[nH]c23)cc1 [Compound 5e, N-(1H-Indol-7-yl)-4-nitrobenzenesulfonamide]
melting point: 185 to 186 °C | IC50 [1]: 46.9 µM | IC50 [2]: > 20 µM | inhibition at 20 µM [2]: 14% | IC50 [3]: 113 µM | IC50 [4]: 95.6 µM

NS(=O)(=O)c1ccc(S(=O)(=O)Nc2cccc3cc[nH]c23)cc1 [Compound 5g, N-(1H-Indol-7-yl)-4-sulfamoylbenzenesulfonamide]
melting point: 215 to 216 °C | IC50 [1]: 39.2 µM | IC50 [2]: > 20 µM | inhibition at 20 µM [2]: 12% | IC50 [3]: 65.9 µM | IC50 [4]: 37.5 µM

O=[N+]([O-])c1ccccc1S(=O)(=O)Nc1cccc2cc[nH]c12 [Compound 5h, N-(1H-Indol-7-yl)-2-nitrobenzenesulfonamide]
melting point: 187 to 188 °C | IC50 [1]: 87.8 µM | IC50 [2]: > 20 µM | inhibition at 20 µM [2]: 13% | IC50 [3]: 126 µM | IC50 [4]: 125 µM

Cc1ccc(C)c2c1[nH]c1c(NS(=O)(=O)c3ccccc3)cccc12 [Compound 6a, N-(5,8-Dimethyl-9H-carbazol-1-yl)benzenesulfonamide]
melting point: 237 to 238 °C | IC50 [1]: 66.7 µM | IC50 [2]: > 20 µM | inhibition at 20 µM [2]: 32% | IC50 [3]: 141 µM | IC50 [4]: 160 µM

Cc1ccc(S(=O)(=O)Nc2cccc3c2[nH]c2c(C)ccc(C)c23)cc1 [Compound 6b, N-(5,8-Dimethyl-9H-carbazol-1-yl)-4-methylbenzenesulfonamide]
melting point: 185 to 186 °C | IC50 [1]: 1.7 µM | IC50 [2]: 2.5 µM | IC50 [3]: 1.1 µM | IC50 [4]: 2.1 µM

Cc1ccc(C)c2c1[nH]c1c(NS(=O)(=O)c3ccc(Cl)cc3)cccc12 [Compound 6d, 4-Chloro-N-(5,8-dimethyl-9H-carbazol-1-yl)benzenesulfonamide]
melting point: 217 to 218 °C | IC50 [1]: 34.4 µM | IC50 [2]: > 20 µM | inhibition at 20 µM [2]: 46% | IC50 [3]: 81.6 µM | IC50 [4]: 90 µM

Cc1ccc(C)c2c1[nH]c1c(NS(=O)(=O)c3ccc([N+](=O)[O-])cc3)cccc12 [Compound 6e, N-(5,8-Dimethyl-9H-carbazol-1-yl)-4-nitrobenzenesulfonamide]
melting point: 202 to 203 °C | IC50 [1]: 19.8 µM | IC50 [2]: > 20 µM | inhibition at 20 µM [2]: 9% | IC50 [3]: 17.6 µM | IC50 [4]: 40.6 µM

Cc1ccc(C)c2c1[nH]c1c(NS(=O)(=O)c3ccc(N)cc3)cccc12 [Compound 6f, 4-Amino-N-(5,8-dimethyl-9H-carbazol-1-yl)benzenesulfonamide]
melting point: 254 to 255 °C | IC50 [1]: 16.6 µM | IC50 [2]: > 20 µM | inhibition at 20 µM [2]: 34% | IC50 [3]: 18.7 µM | IC50 [4]: 39 µM

Cc1ccc(C)c2c1[nH]c1c(NS(=O)(=O)c3ccc(S(N)(=O)=O)cc3)cccc12 [Compound 6g, N-(5,8-Dimethyl-9H-carbazol-1-yl)-4-sulfamoylbenzenesulfonamide]
melting point: 290 to 291 °C | IC50 [1]: 139 µM | IC50 [2]: 19.1 µM | IC50 [3]: 124 µM | IC50 [4]: 80.7 µM

Cc1ccc(C)c2c1[nH]c1c(NS(=O)(=O)c3ccccc3[N+](=O)[O-])cccc12 [Compound 6h, N-(5,8-Dimethyl-9H-carbazol-1-yl)-2-nitrobenzenesulfonamide]
melting point: 202 to 203 °C | IC50 [1]: 21 µM | IC50 [2]: > 20 µM | inhibition at 20 µM [2]: 24% | IC50 [3]: 17 µM | IC50 [4]: 37.2 µM

COc1cc(S(=O)(=O)Nc2cccc3c2[nH]c2c(C)ccc(C)c23)cc(OC)c1OC [Compound 6i, N-(5,8-Dimethyl-9H-carbazol-1-yl)-3,4,5-trimethoxybenzenesulfonamide]
melting point: 205 to 207 °C

Cc1ccc(C)c2c1[nH]c1c(NS(=O)(=O)c3cccc(C(F)(F)F)c3)cccc12 [Compound 6j, N-(5,8-Dimethyl-9H-carbazol-1-yl)-3-trifluoromethylbenzenesulfonamide]
IC50 [5]: > 10 µM | GI50 [6]: > 10 µM | GI50 [7]: > 10 µM | GI50 [8]: > 10 µM | IC50 [8]: > 10 µM | GI50 [9]: > 10 µM | GI50 [10]: > 10 µM | GI50 [11]: > 10 µM | melting point: 217 to 218 °C | IC50 [12]: > 10 µM | IC50 [13]: > 10 µM | IC50 [14]: > 10 µM | IC50 [15]: > 10 µM

Cc1ccc(C)c2c1[nH]c1c(NS(=O)(=O)c3ccc(Cl)s3)cccc12 [Compound 6k, 5-Chloro-thiophene-2-sulfonic acid (5,8-dimethyl-9H-carbazol-1-yl)amide]
IC50 [5]: 10 µM | GI50 [6]: 1.3 µM | GI50 [7]: 2.1 µM | GI50 [8]: 4.6 µM | IC50 [8]: > 10 µM | GI50 [9]: > 10 µM | GI50 [10]: 6.5 µM | GI50 [11]: 6.7 µM | melting point: 232 to 234 °C | IC50 [12]: 5.6 µM | IC50 [13]: > 10 µM | IC50 [14]: 2.7 µM | IC50 [15]: > 10 µM

Cc1ccc(S(=O)(=O)Nc2cccc3c(/N=N/c4ccccc4)c[nH]c23)cc1 [Compound 7b, 4-Methyl-N-(3-phenylazo-1H-indol-7-yl)benzenesulfonamide]
melting point: 212 to 213 °C | IC50 [1]: 30.8 µM | IC50 [2]: > 20 µM | inhibition at 20 µM [2]: 35% | IC50 [3]: 17.9 µM | IC50 [4]: 16 µM

Cc1ccc(C)c2c1[nH]c1c(NC(=O)Nc3ccccc3)cccc12 [Compound 14a, 1-(5,8-Dimethyl-9H-carbazol-1-yl)-3-phenylurea]
melting point: 300 to 301 °C

COc1ccc(NC(=O)Nc2cccc3c2[nH]c2c(C)ccc(C)c23)cc1 [Compound 14b, 1-(5,8-Dimethyl-9H-carbazol-1-yl)-3-(4-methoxyphenyl)urea]
melting point: 262 to 263 °C

COc1ccc(S(=O)(=O)N(C)c2cccc3c2[nH]c2c(C)ccc(C)c23)cc1 [Compound 15c, N-(5,8-Dimethyl-9H-carbazol-1-yl)-N-methyl-4-methoxybenzenesulfonamide]
IC50 [5]: > 10 µM | GI50 [6]: > 10 µM | GI50 [7]: > 10 µM | GI50 [8]: > 10 µM | IC50 [8]: > 10 µM | GI50 [9]: > 10 µM | GI50 [10]: > 10 µM | GI50 [11]: > 10 µM | melting point: 88 to 89 °C | IC50 [12]: > 10 µM | IC50 [13]: > 10 µM | IC50 [14]: > 10 µM | IC50 [15]: > 10 µM

Cc1ccc(C)c2c1[nH]c1c(NS(=O)(=O)c3cc(Cl)c(Oc4ccc([N+](=O)[O-])cc4Cl)c(Cl)c3)cccc12 [Compound 61, 3,5-Dichloro-4-(2-chloro-4-nitrophenoxy)-N-(5,8-dimethyl-9H-carbazol-1-yl)benzenesulfonamide]
melting point: 249 °C
